Publication PMC6270921, “Study on the Cytotoxic Activity of Drimane Sesquiterpenes and Nordrimane Compounds against Cancer Cell Lines” (Molecules, 2014)

Key:
[1] = test system: panel of cancer cell lines; experiment: Cytotoxicity against a panel of cancer cell lines (summary); type: cell-based; settings: Homo sapiens; summary statement of the conclusions
Experimental: (§1) The cytotoxicity of compounds 1–12 was evaluated in vitro against different cancer cell lines: MCF-7 breast cancer, DU-145 and PC-3 human prostate cancer, and one non-tumor cell line, human colon epithelial cells CCD 841 CoN (CoN). […] Four serial dilutions (from 12.5 to 100 μM) for each sample were evaluated in triplicate.
(§2) The sulforhodamine B assay was used according to the method of Skehan et al.. Briefly, the cells were set up at 3 × 10^3 cells per well of a 96 200 μL well, flat-bottomed, microplate. Cells were incubated at 37 °C in a humidified 5% CO2/95% air mixture and treated with the compounds at different concentrations for 72 h. At the end of drug exposure, cells were fixed with 50% trichloroacetic acid at 4 °C. After washing with water, cells were stained with 0.1% sulforhodamine B (Sigma-Aldrich, St. Louis, MO, USA), dissolved in 1% acetic acid (50 μL/well) for 30 min, and subsequently washed with 1% acetic acid to remove unbound stain. Protein-bound stain was solubilized with 100 μL of 10 mM unbuffered Tris base, and the cell density was determined using a […] plate reader (wavelength 540 nm). Values shown are the mean ± SD of three independent experiments in triplicate. The software used to calculate the IC50 values was GraphPad (GraphPad Software, San Diego, CA, USA).

[2] = test system: PC-3 prostate cancer cell line; experiment: Cell viability, sulforhodamine B assay; type: cell-based; settings: Homo sapiens, 72 h exposure, dilutions 12.5 to 100 μM, read-out: Cytotoxicity IC50, PC-3
Experimental: as §1
(§3) The experimental cell cultures were obtained from the American Type Culture Collection (Rockville, MD, USA). MCF-7 cells (breast cancer cell line), PC-3 and DU-145 (prostate cancer cell lines), and human colon epithelial cells CCD 841 CoN (non-tumoral cell line) were grown in Dulbecco’s modified Eagle’s medium (DMEM) containing 10% FCS, 100 U/mL penicillin, 100 μg/mL streptomycin, and 1 mM glutamine. Cells were seeded into 96 well microtiter plates in 100 μL at a plating density of 5 × 10^3 cells/well. After 24 h incubation at 37 °C under a humidified 5% CO2 atmosphere to allow cell attachment, the cells were treated with different concentrations of drugs and incubated for 72 h under the same conditions. Stock solutions of compounds were prepared in ethanol and the final concentration of this solvent was kept constant at 1%. Control cultures received 1% ethanol alone.
as §2

[3] = Cell viability, sulforhodamine B assay; type: cell-based; settings: human, CCD 841 CoN colon epithelial cells (non-tumoral cell line), 72 h exposure, dilutions 12.5 to 100 μM, non-tumor cell line, read-out: Cytotoxicity IC50, CoN
Experimental: as §1, §3, §2

[4] = test system: MCF-7 breast cancer cell line; experiment: Cell viability, sulforhodamine B assay; type: cell-based; settings: Homo sapiens, MCF7, 72 h exposure, dilutions 12.5 to 100 μM, read-out: Cytotoxicity IC50, MCF-7
Experimental: as §1, §3, §2

[5] = test system: DU-145 prostate cancer cell line; experiment: Cell viability, sulforhodamine B assay; type: cell-based; settings: Homo sapiens, 72 h exposure, dilutions 12.5 to 100 μM, read-out: Cytotoxicity IC50, DU145
Experimental: as §1, §3, §2

[6] = test system: Salmonella strains TA 98, TA 2637, and TA 100; settings: at highest non-toxic concentration; cited from earlier work
PC-3 cells [7] = experiment: Mitochondrial membrane permeability, rhodamine 123 flow cytometry; type: cell-based, human
Text: (§4) Mitochondria play a crucial role in the apoptotic cascade by serving as a convergent center of apoptotic signals originating from both the extrinsic and intrinsic pathways. Changes induced in the mitochondrial membrane potential (MMP) have been reported previously to represent a determinant in the execution of cell death. As polygodial has been described as an inhibitor of mitochondrial ATPase and also as nonionic surfactant. This effect may be determinant in cell death, we has analyzed the effect of compounds 1, 8 and 12 on the mitochondrial membrane potential using flow cytometry with rhodamine 123 stain [24]. […] Similar differences were observed after treatments with compounds 1 and 8 at 100 μM.
(§5) Rhodamine 123, a cationic, voltage-sensitive probe that reversibly accumulates in mitochondria, was used to detect changes in transmembrane mitochondrial membrane potentials. Cells were labelled with 1 μM rhodamine 123 at 37 °C in cell medium for 60 min before terminating the experiment. Cells were detached from the plate, after washing with ice cold PBS, and the samples were analyzed by flow cytometry. Data are expressed in percentage of cells with rhodamine 123 [24].

MCF-7 cells [8] = experiment: as above; type: cell-based, human
Text: as §4, §5

CoN cells [9] = experiment: as above; type: cell-based, human
Text: as §4, §5

PC-3 cells [10] = experiment: Morphological changes, phase contrast microscope; type: cell-based, human; settings: PC-3, 50 μM compound for 24 h
Experimental: (§6) First, the appearance of morphological changes in the cells treated with 50 μM compound for 24 h was analyzed.

MCF-7 cells [11] = experiment: Morphological changes, phase contrast microscope; type: cell-based, human; settings: MCF-7, 50 μM compound for 24 h
Experimental: as §6

CoN cells [12] = experiment: Morphological changes, phase contrast microscope; type: cell-based, human; settings: 50 μM compound for 24 h
Experimental: as §6

caspase-3 in CoN cells = experiment: Caspase 3 activity assay (colorimetric, DEVD-pNA); type: cell-based, human; settings: compound 50 μM, control 1% ethanol
Text: (§7) Depletion of mitochondrial membrane potential leads to the release of apoptogenic factors, such as cytochrome c in the apoptotic cascade, and activation of caspases. Then we investigated the effects of our compounds on caspase activity. We focused on caspase-3, which is a main executor of apoptosis playing a central role in its biological processing. We analyzed the effect of treatment with the compound 1, 8 and 12 on caspase-3 activation in normal and cancer cells. […] Compound 1 increased the activity of caspase-3 by 3.4 ± 0.1, 1.4 ± 0.1 and 2.8 ± 0.1 times versus control cells in MCF-7 (black), CoN (white) and PC-3 (gray) cells, respectively. Compound 8 increased the activity of caspase 3 by 2.4 ± 0.1, 1.3 ± 0.2 and 2.7 ± 0.1 times versus control cells in MCF-7 (black), CoN (white) and PC-3 (gray) cells, respectively.
(§8) Caspase activity was measured using a colorimetric assay. Briefly, the cells exposed to compounds were collected by centrifugation at 1000 rpm and lysed with lysis buffer (1% Triton X-100, 0.32 M sucrose, 5 mM EDTA, 10 mM Tris–HCl, pH 8.0, 2 mM dithiothreitol, 1 mM PMSF, […] aprotinin, 1 mg/mL leupeptin). Thereafter, the lysates were transferred to wells in a 96-well microplate and were incubated with DEVD-pNA (final concentration 200 μM) specific for caspase-3/7, at 37 °C for 1 h. The intensity of the developed color was read at 405 nm in a microplate reader (SpectraMax, Winooski, VT, USA). The results are expressed as percentages of the control level.

caspase-3 in MCF-7 cells = experiment: Caspase 3 activity assay (colorimetric, DEVD-pNA); type: cell-based, human; settings: MCF-7, compound 50 μM; control 1% ethanol
Text: as §7, §8

caspase-3 in PC-3 cells = experiment: Caspase 3 activity assay (colorimetric, DEVD-pNA); type: cell-based, human; settings: PC-3, compound 50 μM; control 1% ethanol
Text: as §7, §8

PC-3 cells [13] = experiment: Morphological assessment of cell apoptosis, Hoechst 33342 staining; type: cell-based, human; settings: PC-3, 24 h exposure, fluorescence microscope
Experimental: (§9) Nuclear changes in PC-3, MCF-7 and CoN cells were observed under a fluorescence microscope (200×, Figure 4).
(§10) Briefly, on 24-well chamber slides, 1 × 10^4 cells/mL were cultured and exposed to compounds for 24 h. The control group was also exposed to 1% ethanol. The cells were washed twice with phosphate buffer solution, fixed with 3.7% formaldehyde, and washed again with phosphate buffer solution. Following the addition of 1 μM Hoechst 33342 (Sigma-Aldrich, Santiago, Chile), they were reacted in a dark room at room temperature for 30 min. After washing, they were examined under an immunofluorescence microscope (IX 81 model inverted microscope, Olympus, Santiago, Chile).

MCF-7 cells [14] = experiment: as above; type: cell-based, human; settings: MCF-7, 24 h exposure, fluorescence microscope
Experimental: as §9, §10

CoN cells [15] = experiment: as above; type: cell-based, human; settings: 24 h exposure, fluorescence microscope
Experimental: as §9, §10

[16] = PC-3, compound 100 µM, control treated cells assigned 100%
[17] = MCF-7, compound 50 µM, control treated cells assigned 100%
[18] = MCF-7, compound 100 µM, control treated cells assigned 100%
[19] = compound 50 µM, control treated cells assigned 100%
[20] = compound 100 µM, control treated cells assigned 100%

Row | SMILES | IC50 [1] [µM] | IC50 [2] [µM] | IC50 at 72 h [3] [µM] | IC50 [4] [µM] | IC50 [5] [µM] | further results
1 | CC1(C)CCC[C@]2(C)C3=C(CC[C@@H]12)COC3=O [Compound 5, isodrimenin] | < 200 | 87.6 ± 9.2 | > 200 | > 200 | 90.5 ± 8.2 | 
2 | CC1(C)CCC[C@]2(C)[C@H]3O[C@@]3(C)C(=O)C[C@@H]12 [Compound 9] | < 200 | 97.5 ± 10.4 | > 200 | > 200 | 93.5 ± 6.7 | 
3 | CC1(C)CCC[C@]2(C)[C@H](C=O)C(C=O)=CC[C@@H]12 [Compound 2, isopolygodial] |  | > 200 | > 200 | > 200 | > 200 | mutagenic activity [6]: no mutagenic activity
4 | CC1(C)CCCC2(C)C1CC(=O)C1(C)OC12 (stereo not drawn) [Compound 12, 8α,9α-epoxi-11-nordriman-7-one] | < 200 | 90.2 ± 8.8 | > 200 | 88.4 ± 7.1 | > 200 | percentage of rhodamine 123 stained cells (PC-3 cells [7]; PC-3, compound 50 µM, control treated cells assigned 100%): 139.1 ± 12.4%; percentage of rhodamine 123 stained cells (PC-3 cells [7]; [16]): 149.3 ± 21.3%; percentage of rhodamine 123 stained cells (MCF-7 cells [8]; [17]): 111.4 ± 8.9%; percentage of rhodamine 123 stained cells (MCF-7 cells [8]; [18]): 111.3 ± 9.8%; percentage of rhodamine 123 stained cells (CoN cells [9]; [19]): 102.6 ± 9.1%; percentage of rhodamine 123 stained cells (CoN cells [9]; [20]): 124.9 ± 9.7%; morphological changes of cells (PC-3 cells [10]): severely distorted; morphological changes of cells (MCF-7 cells [11]): severely distorted; morphological changes of cells (CoN cells [12]): severely distorted; increase of caspase-3 activity (caspase-3 in CoN cells): did not change; increase of caspase-3 activity (caspase-3 in MCF-7 cells): did not change; increase of caspase-3 activity (caspase-3 in PC-3 cells): did not change
5 | CC1=CC[C@H]2C(C)(C)CCC[C@]2(C)[C@H]1CO [Compound 3, drimenol] |  | > 200 | > 200 | > 200 | > 200 | 
6 | CC(=O)O[C@H]1C[C@H]2C(C)(C)CCC[C@]2(C)[C@@H]2O[C@]12C [Compound 11, (5S,7S,8R,9S,10S)-4,4,8β,10β-tetramethyldecahydronaphtho[8,9-α]oxiren-7-yl acetate] |  | > 200 | > 200 | > 200 | > 200 | 
7 | CC1(C)CCC[C@]2(C)[C@H](CO)C(CO)=CC[C@@H]12 [Compound 6, 9α-drimendiol] |  | > 200 | > 200 | > 200 | > 200 | 
8 | CC1(C)CCC[C@]2(C)C3=C(CC[C@@H]12)C(=O)OC3 [Compound 4, confertifolin] |  | > 200 | > 200 | > 200 | > 200 | 
9 | CC(=O)O[C@H]1C[C@H]2C(C)(C)CCC[C@]2(C)C=C1C [Compound 10] |  | > 200 | > 200 | > 200 | > 200 | 
10 | CC1(C)CCC[C@]2(C)[C@@H](C3OCCO3)C(C=O)=CC[C@@H]12 [Compound 8] | < 200 | 65.4 ± 5.5 | > 200 | 97.1 ± 7.2 | 70.6 ± 5.9 | percentage of rhodamine 123 stained cells (PC-3 cells [7]; PC-3, compound 50 µM, control treated cells assigned 100%, listed as Comp. 8): 136.2 ± 18.5%; percentage of rhodamine 123 stained cells (PC-3 cells [7]; [16]): 92.8 ± 10.4%; percentage of rhodamine 123 stained cells (MCF-7 cells [8]; [17]): 93.3% ± 7.1%; percentage of rhodamine 123 stained cells (MCF-7 cells [8]; MCF-7, compound 50 µM, control treated cells assigned 100%, listed as Comp. 8): 93.3 ± 7.1%; percentage of rhodamine 123 stained cells (MCF-7 cells [8]; [18]): 72.3 ± 6.4 %; percentage of rhodamine 123 stained cells (CoN cells [9]; [19]): 96.0% ± 7.6%; percentage of rhodamine 123 stained cells (CoN cells [9]; compound 50 µM, control treated cells assigned 100%, listed as Comp. 8): 96.0 ± 7.6%; percentage of rhodamine 123 stained cells (CoN cells [9]; [20]): 52.3 ± 8.4 %; morphological changes of cells (PC-3 cells [10]): severely distorted; morphological changes of cells (MCF-7 cells [11]): severely distorted; morphological changes of cells (CoN cells [12]): severely distorted; nuclear changes after Hoechst 33342 staining (PC-3 cells [13]): chromatin condensation and karyopyknosis; nuclear changes after Hoechst 33342 staining (MCF-7 cells [14]): chromatin condensation and karyopyknosis; nuclear changes after Hoechst 33342 staining (CoN cells [15]): chromatin condensation and karyopyknosis; increase of caspase-3 activity (caspase-3 in CoN cells): 1.3 ± 0.2 times versus control cells; increase of caspase-3 activity (caspase-3 in MCF-7 cells): 2.4 ± 0.1 times versus control cells; increase of caspase-3 activity (caspase-3 in PC-3 cells): 2.7 ± 0.1 times versus control cells
11 | N#CC(C#N)=NNc1ccc(OC(F)(F)F)cc1 [FCCP, reference compound] |  |  |  |  |  | percentage of rhodamine 123 stained cells (PC-3 cells [7]; PC-3, positive control FCCP 10 μM): 5.2 ± 0.4 %; percentage of rhodamine 123 stained cells (MCF-7 cells [8]; MCF-7, positive control FCCP 10 μM): 7.4 ± 0.4 %; percentage of rhodamine 123 stained cells (CoN cells [9]; positive control FCCP 10 μM): 6.8 ± 1.3 %
12 | CC1(C)CCC[C@]2(C)[C@@H](CO)C(CO)=CC[C@@H]12 [Compound 7, 9β-drimendiol] |  | > 200 | > 200 | > 200 | > 200 | 
